# In patent US20250152627A1, “COMPOSITIONS AND METHODS FOR ENHANCING IMMUNE CELL FUNCTION USING MODIFIED CELLS WITH GLYCOCALYX EDITING ENZYMES” (Cornell University, priority 2021, published 2025):
# Assays:
# Format in all cases: cell-based
# 1E7 cells = experiment: Ring-SAIM glycocalyx material thickness, wild-type 1E7 cells; settings: wild-type 1E7 cells, 1,000 ng/mL doxycycline induction; TD139 at 10 μm
# Protocol: Silicon wafers with ˜1900 nm thermal oxide (Addison Engineering) were diced into 7 mm by 7 mm chips, and the oxide layer thickness for each chip was measured with a FilMetrics F50-EXR. Prior to use, the chips were then cleaned with 1:1 methanol and hydrochloric acid for 15 minutes, followed by 1 minutes in a plasma cleaner (Harrick Plasma, PDC-001). The chips were incubated with 4% (v/v) (3-mercaptopropyl)trimethoxysilane in absolute ethanol for 30 minutes at room temperature. After washing with absolute ethanol, the chips were subsequently incubated with 4 mM 4-maleimidobutyric acid N-hydroxysuccinimide ester in absolute ethanol for 30 minutes and rinsed with PBS. 50 μg/mL human plasma fibronectin in PBS was incubated with the functionalized chips overnight at 4° C. for conjugation. Cells were seeded onto the chips at 2×10^4 cm^−2 in full culture medium with varying doxycycline concentrations and incubated for 24 hours. Cells expressing different length of Muc1 were labelled with GFP nanobody conjugated to Alexa Fluor 647 in MCF10A growth media for 10 minutes at 37° C. Cells were labelled with MemGlow dye or CellBrite Steady 550 in serum-free, phenol red-free DMEM/F12 for 10 minutes at 37° C. Sample were then rinsed 3× in PBS, inverted into a 35 mm glass-bottom imaging dish containing imaging buffer (MemGlow dye or CellBrite dye: serum-free, phenol red-free DMEM/F12, Alexa Fluor 647-conjugated GFP nanobody: phenol red-free DMEM/F12 supplemented with 5% horse serum, 20 ng/mL EGF, […], 500 ng/mL hydrocortisone, 100 ng/mL cholera toxin and 1× penicillin/streptomycin) and imaged at 37° C. […]
# (§1) Scanning angle interference microscopy (SAIM) was conducted on a custom circle-scanning microscope.^40 The core of the setup was an inverted fluorescence microscope (Ti-E, Nikon). […] Fluorescence emission was collected with a quad band filter cube and single band filters (TRF89901-EMv2, Chroma) mounted in a motorized filter wheel (Sutter). […]
# [1] = system: 1E7 cells overexpressing GCNT1; experiment: Ring-SAIM glycocalyx material thickness, GCNT1 overexpressing 1E7 cells; settings: 1E7 cells overexpressing GCNT1, treatment with recombinant galectin
# Protocol: Silicon wafers with ˜1900 nm thermal oxide (Addison Engineering) were diced into 7 mm by 7 mm chips, and the oxide layer thickness for each chip was measured with a FilMetrics F50-EXR. Prior to use, the chips were then cleaned with 1:1 methanol and hydrochloric acid for 15 minutes, followed by 1 minutes in a plasma cleaner (Harrick Plasma, PDC-001). The chips were incubated with 4% (v/v) (3-mercaptopropyl)trimethoxysilane in absolute ethanol for 30 minutes at room temperature. After washing with absolute ethanol, the chips were subsequently incubated with 4 mM 4-maleimidobutyric acid N-hydroxysuccinimide ester in absolute ethanol for 30 minutes and rinsed with PBS. 50 μg/mL human plasma fibronectin in PBS was incubated with the functionalized chips overnight at 4° C. for conjugation. Cells were seeded onto the chips at 2×10^4 cm^−2 in full culture medium with varying doxycycline concentrations and incubated for 24 hours. […]
# as §1
# cell surface Muc1 = experiment: Fluorescence recovery after photobleaching (FRAP) of Muc1-GFP; settings: 1E7 GCNT1 OE with 10 μM recombinant human galectin-1
# Protocol: FRAP experiments were performed by using a Zeiss i880 confocal microscope with 63×N.A. 1.4 Oil immersion lens. Five pre-bleached images were firstly taken and photobleaching was performed with 488 nm laser for about 10 seconds to bleach a target area of 2.55 μm×2.55 μm. 1E7 clone (n=11) and 1E7 GCNT1 overexpression (n=10) were used to measure mobile fraction of Muc1-GFP. 10 μM recombinant human galectin-1 was incubated with 1E7 GCNT1 cells for 10 minutes at 37° C. (n=9). Intensity profiles were corrected by normalizing to the time-course decay of GFP signal in non-bleached area by using MATLAB code from Advanced Imaging Center (https://www.mathworks.com/matlabcentral/fileexchange/47327-frap-zip)
Compound,change of the material thickness of the glycocalyx (1E7 cells),decrease of glycocalyx thickness compared to untreated cells [1] [nm],effect on mobility and mobile fraction of cell surface Muc1 (cell surface Muc1)
OC[C@H]1O[C@@H](S[C@@H]2O[C@H](CO)[C@H](O)[C@H](n3cc(-c4cccc(F)c4)nn3)[C@H]2O)[C@H](O)[C@@H](n2cc(-c3cccc(F)c3)nn2)[C@H]1O [TD139],did not significantly change,–,–
recombinant galectin-1: recombinant human galectin-1 (LGALS1) expressed in E. coli,did not significantly change,19.4,does not significantly affect
recombinant galectin-3: recombinant human galectin-3 (LGALS3) expressed in E. coli,did not significantly change,9.5,–
